Assay results from paper PMC7587962, “Evaluation of Cytotoxicity and α-Glucosidase Inhibitory Activity of Amide and Polyamino-Derivatives of Lupane Triterpenoids” (Molecules, 2020).
Where two headings read alike, the source gives them in different places.

How the values were obtained:
Melanoma subpanel = assay: NCI-60 screen, subpanel Melanoma
SNB-19 = assay: NCI-60 SRB screen: CNS cancer SNB-19; assay type: cell-based, human
SNB-75 = assay: NCI-60 SRB screen: CNS cancer SNB-75; assay type: cell-based, human
[1] = tested on: 60 human tumor cell lines; assay: cells
NCI/ADR-RES = assay: NCI-60 SRB screen: ovarian cancer NCI/ADR-RES; assay type: cell-based, human
CCRF-CEM = assay: NCI-60 SRB screen: leukemia CCRF-CEM; assay type: cell-based; conditions: Homo sapiens, 48 h
UACC-62 = assay: NCI-60 SRB screen: melanoma UACC-62; assay type: cell-based, human
Colon Cancer subpanel = assay: NCI-60 screen, subpanel Colon Cancer
OVCAR-5 = assay: NCI-60 SRB screen: ovarian cancer OVCAR-5; assay type: cell-based, human
Ovarian Cancer subpanel = assay: NCI-60 screen, subpanel Ovarian Cancer
OVCAR-3 = assay: NCI-60 SRB screen: ovarian cancer OVCAR-3; assay type: cell-based, human
HOP-92 = assay: NCI-60 SRB screen: non-small cell lung cancer HOP-92; assay type: cell-based, human
SR = assay: NCI-60 SRB screen: leukemia SR; assay type: cell-based; conditions: Homo sapiens, 48 h
HS 578T = assay: NCI-60 SRB screen: breast cancer HS 578T; assay type: cell-based, human
NSCL cancer subpanel = assay: NCI-60 screen, subpanel NSCL cancer
M14 = assay: NCI-60 SRB screen: melanoma M14; assay type: cell-based, human
IGROV1 = assay: NCI-60 SRB screen: ovarian cancer IGROV1; assay type: cell-based, human
HL-60(TB) = assay: NCI-60 SRB screen: leukemia HL-60(TB); assay type: cell-based; conditions: Homo sapiens, HL-60, 48 h
CNS cancer subpanel = assay: NCI-60 screen, subpanel CNS cancer
NCI-H23 = assay: NCI-60 SRB screen: non-small cell lung cancer NCI-H23; assay type: cell-based, human
Leukemia subpanel = assay: NCI-60 screen, subpanel Leukemia
SF-295 = assay: NCI-60 SRB screen: CNS cancer SF-295; assay type: cell-based, human
Renal Cancer subpanel = assay: NCI-60 screen, subpanel Renal Cancer
SK-MEL-28 = assay: NCI-60 SRB screen: melanoma SK-MEL-28; assay type: cell-based, human
NCI-H322M = assay: NCI-60 SRB screen: non-small cell lung cancer NCI-H322M; assay type: cell-based, human
UACC-257 = assay: NCI-60 SRB screen: melanoma UACC-257; assay type: cell-based, human
MCF7 = assay: NCI-60 SRB screen: breast cancer MCF7; assay type: cell-based; conditions: Homo sapiens, MCF7, 48 h
A549/ATCC = assay: NCI-60 SRB screen: non-small cell lung cancer A549/ATCC; assay type: cell-based, human
EKVX = assay: NCI-60 SRB screen: non-small cell lung cancer EKVX; assay type: cell-based, human
NCI-H460 = assay: NCI-60 SRB screen: non-small cell lung cancer NCI-H460; assay type: cell-based; conditions: Homo sapiens, NCI-H460, 48 h
MOLT-4 = assay: NCI-60 SRB screen: leukemia MOLT-4; assay type: cell-based; conditions: Homo sapiens, MOLT-4, 48 h
MDA-MB-468 = assay: NCI-60 SRB screen: breast cancer MDA-MB-468; assay type: cell-based, human; conditions: for GI50: five concentrations, 48 h, SRB
U251 = assay: NCI-60 SRB screen: CNS cancer U251; assay type: cell-based; conditions: Homo sapiens, U-251, 48 h
OVCAR-4 = assay: NCI-60 SRB screen: ovarian cancer OVCAR-4; assay type: cell-based; conditions: Homo sapiens, OVCAR-4, 48 h
SK-MEL-5 = assay: NCI-60 SRB screen: melanoma SK-MEL-5; assay type: cell-based, human
[2] = read-out: Percentage Cell Growth

SMILES: C=C(C)[C@@H]1CC[C@]2(C(N)=O)CC[C@]3(C)[C@H](CC[C@@H]4[C@@]5(C)CC[C@H](O)C(C)(C)[C@@H]5CC[C@]43C)[C@@H]12 [Compound 5]
- MID b, average sensitivity of all cell line of particular subpanel (Melanoma subpanel): 5.58 µM
- Selectivity, ratio MID a: MID b (Melanoma subpanel): 0.66
- GI50 (SNB-19; Homo sapiens, SNB-19, 48 h): 4.57 µM
- Percentage Cell Growth (SNB-19; SNB-19, single dose 10 µM): 1.30%
- GI50 (SNB-75; Homo sapiens, SNB-75, 48 h): 2.74 µM
- Percentage Cell Growth (SNB-75; SNB-75, single dose 10 µM): −39.09%
- GI50 ([1]; read-out: GI50 ranges against all panels of NCI60): 1.09 to 13.2 µM
- GI50 ([1]; read-out: MID a, average sensitivity of all cell line (GI50-MID)): 3.67 µM
- GI50 (NCI/ADR-RES; Homo sapiens, 48 h): 3.17 µM
- Percentage Cell Growth (NCI/ADR-RES; single dose 10 µM): −8.91%
- GI50 (CCRF-CEM): 4.49 µM
- activity at 10 µM (CCRF-CEM; [2]): 3.11%
- GI50 (UACC-62; Homo sapiens, UACC-62, 48 h): 4.2 µM
- Percentage Cell Growth (UACC-62; UACC-62, single dose 10 µM): −23.23%
- MID b, average sensitivity of all cell line of particular subpanel (Colon Cancer subpanel): 3.21 µM
- Selectivity, ratio MID a: MID b (Colon Cancer subpanel): 1.14
- GI50 (OVCAR-5; Homo sapiens, OVCAR-5, 48 h): 3.78 µM
- Percentage Cell Growth (OVCAR-5; OVCAR-5, single dose 10 µM): −21.57%
- MID b, average sensitivity of all cell line of particular subpanel (Ovarian Cancer subpanel): 3.88 µM
- Selectivity, ratio MID a: MID b (Ovarian Cancer subpanel): 0.95
- GI50 (OVCAR-3; Homo sapiens, OVCAR-3, 48 h): 2.07 µM
- Percentage Cell Growth (OVCAR-3; OVCAR-3, single dose 10 µM): −46.59%
- Percentage Cell Growth (HOP-92; HOP-92, single dose 10 µM): −62.83%
- GI50 (HOP-92; Homo sapiens, HOP-92, 48 h): 2.69 µM
- GI50 (SR): 4.14 µM
- activity at 10 µM (SR; [2]): 15.5%
- Percentage Cell Growth (HS 578T; HS 578T, single dose 10 µM): −1.70%
- GI50 (HS 578T; Homo sapiens, Hs-578T, 48 h): 5.74 µM
- MID b, average sensitivity of all cell line of particular subpanel (NSCL cancer subpanel): 2.79 µM
- Selectivity, ratio MID a: MID b (NSCL cancer subpanel): 1.32
- GI50 (M14; Homo sapiens, M14, 48 h): 6.05 µM
- Percentage Cell Growth (M14; M14, single dose 10 µM): 8.80%
- GI50 (IGROV1; Homo sapiens, IGROV-1, 48 h): 3.32 µM
- Percentage Cell Growth (IGROV1; IGROV1, single dose 10 µM): −58.08%
- GI50 (HL-60(TB)): 3.59 µM
- activity at 10 µM (HL-60(TB); [2]): 1.17%
- MID b, average sensitivity of all cell line of particular subpanel (CNS cancer subpanel): 3.23 µM
- Selectivity, ratio MID a: MID b (CNS cancer subpanel): 1.14
- GI50 (NCI-H23; Homo sapiens, NCI-H23, 48 h): 2.26 µM
- Percentage Cell Growth (NCI-H23; NCI-H23, single dose 10 µM): −27.08%
- MID b, average sensitivity of all cell line of particular subpanel (Leukemia subpanel): 3.20 µM
- Selectivity, ratio MID a: MID b (Leukemia subpanel): 1.15
- GI50 (SF-295; Homo sapiens, SF-295, 48 h): 3.39 µM
- Percentage Cell Growth (SF-295; SF-295, single dose 10 µM): −57.70%
- MID b, average sensitivity of all cell line of particular subpanel (Renal Cancer subpanel): 3.53 µM
- Selectivity, ratio MID a: MID b (Renal Cancer subpanel): 1.04
- GI50 (SK-MEL-28; Homo sapiens, SK-MEL-28, 48 h): 1.09 µM
- Percentage Cell Growth (SK-MEL-28; SK-MEL-28, single dose 10 µM): 0.38%
- GI50 (NCI-H322M; Homo sapiens, 48 h): 2.59 µM
- Percentage Cell Growth (NCI-H322M; single dose 10 µM): −58.91%
- GI50 (UACC-257; Homo sapiens, UACC-257, 48 h): 13.2 µM
- Percentage Cell Growth (UACC-257; UACC-257, single dose 10 µM): −6.08%
- GI50 (MCF7): 2.91 µM
- activity at 10 µM (MCF7; [2]): -12.5%
- Percentage Cell Growth (A549/ATCC; A549/ATCC, single dose 10 µM): −69.33%
- GI50 (A549/ATCC; Homo sapiens, A549, 48 h): 2.11 µM
- GI50 (EKVX; Homo sapiens, 48 h): 2.96 µM
- Percentage Cell Growth (EKVX; single dose 10 µM): −10.31%
- GI50 (NCI-H460): 2.12 µM
- activity at 10 µM (NCI-H460; [2]): -37.5%
- GI50 (MOLT-4): 3.43 µM
- activity at 10 µM (MOLT-4; [2]): 1.86%
- GI50 (MDA-MB-468; Homo sapiens, MDA-MB-468, 48 h): 1.97 µM
- GI50 (MDA-MB-468): 3.2 µM
- Percentage Cell Growth (MDA-MB-468; single dose 10 µM): −56.03%
- GI50 (U251): 2.54 µM
- activity at 10 µM (U251; [2]): -69.3%
- GI50 (OVCAR-4): 3.54 µM
- GI50 (SK-MEL-5; Homo sapiens, SK-MEL-5, 48 h): 5.22 µM
- Percentage Cell Growth (SK-MEL-5; SK-MEL-5, single dose 10 µM): −39.59%
